Publication PMC12434071, “Platinum-group metal half-sandwich complexes of 1-(α-D-glucopyranosyl)-4-hetaryl-1,2,3-triazoles: synthesis, solution equilibrium studies, and investigation of their anticancer and antimicrobial activities” (Frontiers in Chemistry, 2025)

Key:
[1] = tested on: A2780 cells; test: SRB assay on A2780 cells; assay type: cell-based; settings: maximal inhibition; 48 h treatment; maximum concentration 100 µM
Experimental: For MTT assays, 4 × 10^3 A2780 cells were plated into 96-well plates, and for SRB assays, 1.5 × 10^3 A2780 cells were plated into 96-well plates. Cells were treated with the compounds in the concentrations indicated for either 4 h for an MTT assay or for 48 h for an SRB assay. Data are represented as average ± SD, from four biological replicates, with the exception of the MTT dataset of Ir-2b and the SRB datasets of 2b, Ru/Ir-2b, and Ir-3a, which were derived from three biological replicates. Individual assays were performed in duplicate. Values were normalized for vehicle-treated cells, and the absorbance for vehicle-treated cells equals 1. Data are represented as fold change compared to vehicle-treated controls. Normality was assessed using the D’Agostino–Pearson test. Statistical significance was assessed using a two-way ANOVA test followed by Tukey’s post hoc test. For better visibility, normality, transformations, statistical tests, and p values are presented in an MS Excel sheet at https://figshare.com/s/3a0aa60b66f3f746f41e. Color code: black—free ligand (2a,b or 3a), khaki—ruthenium complex (Ru-2a,b or Ru-3a), green—iridium complex (Ir-2a,b or Ir-3a).  FIGURE 7 The ruthenium, osmium, and iridium complexes of ligands 4a, 4b, and 5a are cytostatic on ovarian cancer models with a good therapeutic index. For SRB assays, 1.5 × 10^3 A2780 cells, 1.5 × 10^3 ID8 cells, or 4 × 10^3 primary fibroblasts were plated into 96-well plates. Cells were treated with the compounds in the concentrations indicated for 48 h. Data are represented as average ± SD, from four biological replicates on A2780 and human primary fibroblasts, except in the case of Os complexes, where experiments were performed in three biological replicates. ID8 cells were assessed in three biological replicates. Individual assays were performed in duplicate. Values were normalized for vehicle-treated cells, and the absorbance for vehicle-treated cells equals 1. Normality was assessed using the D’Agostino–Pearson test. Statistical significance was assessed using a two-way ANOVA test followed by Tukey’s post hoc test. For better visibility, normality, transformations, statistical tests, and p values are presented in an MS Excel sheet at https://figshare.com/s/3a0aa60b66f3f746f41e. Color code: black—free ligand (4a,b or 5a), khaki—ruthenium complex (Ru-4a,b), blue—osmium complex (Os-4a,b or Os-5a), green—iridium complex (Ir-4a,b), and red—rhodium complex (Rh-4a,b). An SRB assay measures protein content of cells in correlation with the cell number in an assay well and can therefore be used to assess cell proliferation or long-term cytostasis ([Skehan et al., 1990]). Cells were seeded into 96-well plates the day before the treatment for the assay. Cells were treated with the various compounds for 48 h. Then, the medium was removed, and cells were fixed with 10% trichloroacetic acid. Fixed cells were washed in distilled water three times, followed by staining with SRB (0.4 m/V% dissolved in 1% acetic acid) for 10 min. Stained cells were washed in 1% acetic acid five times; the acetic acid was removed, and the cells were left to dry. Protein-bound SRB was released by adding 100 µL of 10 mM Tris base. Plates were measured in a plate photometer (Thermo Scientific Multiscan GO spectrophotometer, Waltham, MA, United States) at 540 nm. Certain wells were designated to contain vehicle-treated cells on each plate. […] Statistical analysis was performed using version 8.0.1 of GraphPad Prism. Values were tested for normal distribution using the D’Agostino–Pearson or Shapiro–Wilk normality tests. When necessary, values were log-normalized or normalized using the Box–Cox or two-step normalization method ([Box and Cox, 1964]), as indicated in the MS Excel file listing the values at https://figshare.com/s/3a0aa60b66f3f746f41e. […]

[2] = tested on: A2780 cells; test: MTT reduction assay on A2780 cells; assay type: cell-based; settings: maximal inhibition; 4 h treatment; maximum concentration 100 µM
Experimental: For MTT assays, 4 × 10^3 A2780 cells were plated into 96-well plates, and for SRB assays, 1.5 × 10^3 A2780 cells were plated into 96-well plates. Cells were treated with the compounds in the concentrations indicated for either 4 h for an MTT assay or for 48 h for an SRB assay. Data are represented as average ± SD, from four biological replicates, with the exception of the MTT dataset of Ir-2b and the SRB datasets of 2b, Ru/Ir-2b, and Ir-3a, which were derived from three biological replicates. Individual assays were performed in duplicate. Values were normalized for vehicle-treated cells, and the absorbance for vehicle-treated cells equals 1. Data are represented as fold change compared to vehicle-treated controls. Normality was assessed using the D'Agostino-Pearson test. Statistical significance was assessed using a two-way ANOVA test followed by Tukey's post hoc test. For better visibility, normality, transformations, statistical tests, and p values are presented in an MS Excel sheet at https://figshare.com/s/3a0aa60b66f3f746f41e. Color code: black-free ligand (2a,b or 3a), khaki-ruthenium complex (Ru-2a,b or Ru-3a), green-iridium complex (Ir-2a,b or Ir-3a).  FIGURE 5 The ruthenium, osmium, and iridium complexes of ligands 4a, 4b, and 5a decrease MTT reduction. For MTT assays, 4 × 10^3 A2780 cells, 3 × 10^3 ID8 cells, or 6 × 10^3 human primary fibroblasts were plated into 96-well plates. Cells were treated with the compounds in the concentrations indicated for 4 h. Data are represented as average ± SD, from four biological replicates on A2780, and from three biological replicates on ID8 and human primary fibroblasts. For the datasets of 5a and Os-5a on human primary fibroblasts, the data represent four biological replicates. Individual assays were performed in duplicate. Values were normalized for vehicle-treated cells, and the absorbance for vehicle-treated cells equals 1. Normality was assessed using the D'Agostino-Pearson test. Statistical significance was assessed using a two-way ANOVA test followed by Tukey's post hoc test. For better visibility, normality, transformations, statistical tests, and p values are presented in an MS Excel sheet at https://figshare.com/s/3a0aa60b66f3f746f41e. Color code: black-free ligand (4a,b or 5a), khaki-ruthenium complex (Ru-4a,b), green-iridium complex (Ir-4a,b), blue-osmium complex (Os-4a,b or Os-5a), and red-rhodium complex (Rh-4a,b). An MTT reduction assay measures the activity of mitochondrial complex I and can be used to detect toxicity ([[…] et al., 2016]). The assay was performed in a manner similar to that described by [[…] et al. (2023b)]. Briefly, cells were plated into 96-well plates the day before the assay. Cells were treated with the compounds for 4 h; then, MTT was added to a 0.5 mg/mL final concentration, and cells were incubated at 37°C in a cell incubator for 40-60 min, as a function of the cell line being assessed. The culture medium was removed, the reduced MTT dye was dissolved in dimethylsulfoxide, and plates were measured in a plate photometer (Thermo Scientific Multiscan GO spectrophotometer, Waltham, MA, United States) at 540 nm. Certain wells were designated to contain vehicle-treated cells on each plate. In calculations, the readings for these wells were considered to 1, and all readings were expressed relative to these values. Statistical analysis was performed using version 8.0.1 of GraphPad Prism. Values were tested for normal distribution using the D'Agostino-Pearson or Shapiro-Wilk normality tests. When necessary, values were log-normalized or normalized using the Box-Cox or two-step normalization method ([Box and Cox, 1964]), as indicated in the MS Excel file listing the values at https://figshare.com/s/3a0aa60b66f3f746f41e. The following statistical test, post hoc test, and the level of significance are indicated in the MS Excel file listing the values at https://figshare.com/s/3a0aa60b66f3f746f41e. […]

[3] = pH-potentiometric titration, protonation constants (pKa) of the ligands; assay type: physicochemical; settings: 0.20 M KCl, 25.0°C; N-heterocyclic ring of the ligand
Experimental: In order to obtain information on the acidbase character of the ligands and on the stoichiometry and stability of the complexes present in aqueous medium, potentiometric titrations were carried out in selected systems. Based on the results, both 3a and 3b, having good enough solubility in water, are capable of releasing one hydrogen ion from the fully protonated forms in the measurable pH range (see Figure 3, “pK”). The calculated pK a values appear in Table 4; these values belong to the N-heterocyclic ring of the ligands. […]. For comparison, the previously prepared β-anomeric pair of 3a, compound 3a-β ([Kacsir et al., 2021]) in Table 4, was also studied.
For solution studies, doubly deionized and ultra-filtered water was obtained from a Milli-Q RG (Millipore) water purification system. pH-potentiometric measurements were carried out at a constant ionic strength of 0.20 M KCl and at 25.0°C. Carbonate-free KOH solutions of known concentrations (ca. 0.2 M) were used as titrant. […]. A Mettler Toledo DL50 titrator equipped with a DG114-SC combined glass electrode was used for the pH-potentiometric measurements. […] The titrations were performed in the pH range of 2.0–11.0 in equilibrium-controlled mode, during which the pH equilibrium was assumed to be reached if a change in the measured potential was less than 0.1 mV within 90 s. […]

[4] = pH-potentiometric titration, stability constants (logβ) of ML complexes; assay type: physicochemical; settings: [(η^5-Cp*)Rh]^2+; 0.20 M KCl, 25.0°C
Text: […]. […] Comparing the two metal ion containing systems, the complexation with [(η^6-p-cym)Ru]^2+, starts at a more acidic pH, but hydrolytic processes occur already in the physiological pH range due to the higher affinity of the metal ion to hydrolysis. For the [(η^5-Cp*)Rh]^2+, these processes are shifted towards higher pH; […].
For solution studies, doubly deionized and ultra-filtered water was obtained from a Milli-Q RG (Millipore) water purification system. pH-potentiometric measurements were carried out at a constant ionic strength of 0.20 M KCl and at 25.0°C. Carbonate-free KOH solutions of known concentrations (ca. 0.2 M) were used as titrant. […]. A Mettler Toledo DL50 titrator equipped with a DG114-SC combined glass electrode was used for the pH-potentiometric measurements. […] The titrations were performed in the pH range of 2.0–11.0 in equilibrium-controlled mode, during which the pH equilibrium was assumed to be reached if a change in the measured potential was less than 0.1 mV within 90 s. […] The protonation constants of the ligands and the overall stability constants of the complexes, βp,q,r = [MpHqLr]/[M]^p[H]^q[L]^r (where “M” stands for [(η^5-Cp*)Rh(H2O)3]^2+ and “L” represents the completely deprotonated form of the ligand), were calculated with the aid of the SUPERQUAD ([Gans et al., 1985]) and PSEQUAD ([Zékány and Nagypál, 1985]) computer programs, respectively. […]

[5] = tested on: cisplatin-resistant A2780 cells; settings: ref Kacsir et al., 2023a; cited from earlier work

CC(=O)OC[C@H]1O[C@H](n2cc(-c3ccccn3)nn2)[C@H](OC(C)=O)[C@@H](OC(C)=O)[C@@H]1OC(C)=O [Complex 2a, 1-(2’,3’,4’,6’-Tetra-O-acetyl-α-D-glucopyranosyl)-4-(pyridin-2-yl)-1,2,3-triazole]
A2780 SRB max % [1]: 0%
A2780 MTT max % [2]: 0%

OC[C@H]1O[C@H](n2cc(-c3ccc4ccccc4n3)nn2)[C@H](O)[C@@H](O)[C@@H]1O [Complex 3b, 1-(α-D-Glucopyranosyl)-4-(quinolin-2-yl)-1,2,3-triazole]
pK a [3]: 3.56 (1)
logβ [ML] [4]: 5.55 (3)

N.N.[Cl][Pt][Cl] [cisplatin]
IC50 [5]: 16.5 µM

CC(=O)OC[C@H]1O[C@H](n2cc(-c3ccc4ccccc4n3)nn2)[C@H](OC(C)=O)[C@@H](OC(C)=O)[C@@H]1OC(C)=O [Complex 2b, 1-(2’,3’,4’,6’-Tetra-O-acetyl-α-D-glucopyranosyl)-4-(quinolin-2-yl)-1,2,3-triazole]
A2780 SRB max % [1]: 22.33%
A2780 MTT max % [2]: 0%
